Results as given in the NIST ThermoML archive (doi:10.1016/j.fluid.2013.08.022).

Experiment: wn = mass fraction of the nth substance listed
Conditions: 298.15 K, 101 kPa, Liquid; for viscosity: Cone and plate viscometry; for mass density: Vibrating tube method

| viscosity (w1 = 1) | mass density (w1 = 1) | viscosity (w2 = 0) | viscosity (w2 = 0.25) | viscosity (w2 = 0.5) | viscosity (w2 = 0.75) | mass density (w2 = 0) | mass density (w2 = 0.25) | mass density (w2 = 0.5) | mass density (w2 = 0.75) | Structure (SMILES) |
| --- | --- | --- | --- | --- | --- | --- | --- | --- | --- | --- |
| 0.34 mPa·s | 776.85 kg/m3 |  |  |  |  |  |  |  |  | CC#N [acetonitrile] + CCOC(=O)OCC |
|  |  | 0.74 mPa·s | 0.65 mPa·s | 0.57 mPa·s | 0.45 mPa·s | 969.17 kg/m3 | 921.12 kg/m3 | 873.25 kg/m3 | 824.87 kg/m3 | CCOC(=O)OCC [diethyl carbonate] + CC#N |
